Data as given in ChEMBL document CHEMBL1143429, “One-pot synthesis and antibacterial activities of pyrazolo[4',3':5,6]pyrido[2,3-d]pyrimidine-dione derivatives” (2008).
Values after ≈ are worked out from the molar mass of the structure shown. Active and inactive are the calls of the source. The rule behind the calls is not given here.

Columns and labels:
Format in all cases: functional
Bacillus subtilis = assay: Antibacterial activity against Bacillus subtilis ATCC 465 by microdilution method
Bacillus pumilus = assay: Antibacterial activity against Bacillus pumilus PTCC 1114 by microdilution method
Micrococcus luteus = assay: Antibacterial activity against Micrococcus luteus PTCC 1110 by microdilution method
Staphylococcus aureus = assay: Antibacterial activity against Staphylococcus aureus ATCC 25923 by microdilution method
[1] = system: Staphylococcus epidermidis; assay: Antibacterial activity against Staphylococcus epidermidis ATCC 12228 by microdilution method
Streptococcus mutans = assay: Antibacterial activity against Streptococcus mutans PTCC 1601 by microdilution method
Escherichia coli = assay: Antibacterial activity against Escherichia coli ATCC 25922 by microdilution method
Enterococcus faecalis = assay: Antibacterial activity against Enterococcus faecalis ATCC 29737 by microdilution method
Pseudomonas aeruginosa = assay: Antibacterial activity against Pseudomonas aeruginosa ATCC 85327 by microdilution method

Row | Compound | MIC (Bacillus subtilis) [µg/mL] | MIC (Bacillus pumilus) [µg/mL] | MIC (Micrococcus luteus) [µg/mL] | MIC (Staphylococcus aureus) [µg/mL] | MIC [1] [µg/mL] | MIC (Streptococcus mutans) [µg/mL] | MIC (Escherichia coli) [µg/mL] | MIC (Enterococcus faecalis) [µg/mL] | MIC (Pseudomonas aeruginosa) [µg/mL] | Activity (Escherichia coli) | Activity (Pseudomonas aeruginosa) | Activity (Bacillus subtilis) | Activity (Bacillus pumilus) | Activity (Micrococcus luteus) | Activity (Staphylococcus aureus) | Activity [1] | Activity (Streptococcus mutans) | Activity (Enterococcus faecalis)
1 | O=c1[nH]c2c(c(=O)[nH]1)C(c1cccc([N+](=O)[O-])c1)c1c(-c3ccccc3)nn(-c3ccccc3)c1N2 (configuration not stated) | 2 (≈ 4.18 µM) | 2 (≈ 4.18 µM) | 2 (≈ 4.18 µM) | 2 (≈ 4.18 µM) | 2 (≈ 4.18 µM) | < 2 | < 2 | 2 (≈ 4.18 µM) | 2 (≈ 4.18 µM) |  |  |  |  |  |  |  |  | 
2 | Cc1ccc(C2c3c(-c4ccccc4)nn(-c4ccccc4)c3Nc3[nH]c(=O)[nH]c(=O)c32)cc1 (configuration not stated) | 2 (≈ 4.47 µM) | 2 (≈ 4.47 µM) | < 2 | 2 (≈ 4.47 µM) | 2 (≈ 4.47 µM) | < 2 | < 2 | 2 (≈ 4.47 µM) | 2 (≈ 4.47 µM) |  |  |  |  |  |  |  |  | 
3 | O=c1[nH]c2c(c(=O)[nH]1)C(c1ccccc1)c1c(-c3ccccc3)nn(-c3ccccc3)c1N2 (configuration not stated) | 2 (≈ 4.61 µM) | < 2 | < 2 | 2 (≈ 4.61 µM) | 2 (≈ 4.61 µM) | < 2 | < 2 | 2 (≈ 4.61 µM) | 2 (≈ 4.61 µM) |  |  |  |  |  |  |  |  | 
4 | O=c1[nH]c2c(c(=O)[nH]1)C(c1cccc([N+](=O)[O-])c1)c1c(-c3ccccc3)nn(-c3ccc([N+](=O)[O-])cc3)c1N2 (configuration not stated) | 6 (≈ 11.5 µM) | 4 (≈ 7.64 µM) | 2 (≈ 3.82 µM) | 2 (≈ 3.82 µM) | 26 (≈ 49.7 µM) | < 2 | 6 (≈ 11.5 µM) | 2 (≈ 3.82 µM) | 30 (≈ 57.3 µM) |  |  |  |  |  |  |  |  | 
5 | O=c1[nH]c(=S)[nH]c2c1C(c1ccc(Cl)cc1)c1c(-c3ccccc3)nn(-c3ccc([N+](=O)[O-])cc3)c1N2 (configuration not stated) | 4 (≈ 7.56 µM) | 4 (≈ 7.56 µM) | 3 (≈ 5.67 µM) | 6 (≈ 11.3 µM) | 6 (≈ 11.3 µM) | 8 (≈ 15.1 µM) | 6 (≈ 11.3 µM) | 12 (≈ 22.7 µM) | 16 (≈ 30.2 µM) |  |  |  |  |  |  |  |  | 
6 | Cc1ccc(C2c3c(-c4ccccc4)nn(-c4ccc([N+](=O)[O-])cc4)c3Nc3[nH]c(=O)[nH]c(=O)c32)cc1 (configuration not stated) | 6 (≈ 12.2 µM) | 6 (≈ 12.2 µM) | 2 (≈ 4.06 µM) | 2 (≈ 4.06 µM) | 24 (≈ 48.7 µM) | < 2 | 4 (≈ 8.12 µM) | 2 (≈ 4.06 µM) | 28 (≈ 56.9 µM) |  |  |  |  |  |  |  |  | 
7 | CN(C)[C@@H]1C(O)=C(C(N)=O)C(=O)[C@@]2(O)C(O)=C3C(=O)c4c(O)cccc4[C@@](C)(O)[C@H]3C[C@@H]12 [TETRACYCLINE] | 4 (≈ 9 µM) | 8 (≈ 18 µM) | 4 (≈ 9 µM) | 4 (≈ 9 µM) | < 2 | 2 (≈ 4.5 µM) |  | 8 (≈ 18 µM) |  | inactive | inactive |  |  |  |  |  |  | 
8 | O=c1[nH]c(=S)[nH]c2c1C(c1ccc(Cl)cc1)c1c(-c3ccccc3)nn(-c3ccccc3)c1N2 (configuration not stated) | 4 (≈ 8.26 µM) | 4 (≈ 8.26 µM) | 4 (≈ 8.26 µM) | 4 (≈ 8.26 µM) | 8 (≈ 16.5 µM) | 8 (≈ 16.5 µM) | 4 (≈ 8.26 µM) | 16 (≈ 33.1 µM) | 16 (≈ 33.1 µM) |  |  |  |  |  |  |  |  | 
9 | O=c1[nH]c2c(c(=O)[nH]1)C(c1ccc(Br)cc1)c1c(-c3ccccc3)nn(-c3ccc([N+](=O)[O-])cc3)c1N2 (configuration not stated) | 8 (≈ 14.4 µM) | 4 (≈ 7.18 µM) | 2 (≈ 3.59 µM) | 4 (≈ 7.18 µM) | 32 (≈ 57.4 µM) | < 2 | 4 (≈ 7.18 µM) | 4 (≈ 7.18 µM) | 32 (≈ 57.4 µM) |  |  |  |  |  |  |  |  | 
10 | GENTAMICIN |  |  |  |  |  |  | 4 |  | 8 |  |  | inactive | inactive | inactive | inactive | inactive | inactive | inactive
11 | O=c1[nH]c2c(c(=O)[nH]1)C(c1ccc(Cl)cc1)c1c(-c3ccccc3)nn(-c3ccccc3)c1N2 (configuration not stated) | 4 (≈ 8.55 µM) | 2 (≈ 4.27 µM) | < 2 | 64 (≈ 137 µM) | 4 (≈ 8.55 µM) | < 2 | < 2 | 32 (≈ 68.4 µM) | 2 (≈ 4.27 µM) |  |  |  |  |  |  |  |  | 
12 | O=c1[nH]c2c(c(=O)[nH]1)C(c1ccccc1)c1c(-c3ccccc3)nn(-c3ccc([N+](=O)[O-])cc3)c1N2 (configuration not stated) | 6 (≈ 12.5 µM) | 4 (≈ 8.36 µM) | 2 (≈ 4.18 µM) | 4 (≈ 8.36 µM) | 18 (≈ 37.6 µM) | < 2 | 4 (≈ 8.36 µM) | 4 (≈ 8.36 µM) | 20 (≈ 41.8 µM) |  |  |  |  |  |  |  |  | 
13 | O=c1[nH]c(=S)[nH]c2c1C(c1ccc([N+](=O)[O-])cc1)c1c(-c3ccccc3)nn(-c3ccc([N+](=O)[O-])cc3)c1N2 (configuration not stated) | 4 (≈ 7.41 µM) | 4 (≈ 7.41 µM) | 4 (≈ 7.41 µM) | 6 (≈ 11.1 µM) | 8 (≈ 14.8 µM) | 8 (≈ 14.8 µM) | 6 (≈ 11.1 µM) | 10 (≈ 18.5 µM) | 14 (≈ 25.9 µM) |  |  |  |  |  |  |  |  | 
14 | O=c1[nH]c2c(c(=O)[nH]1)C(c1ccc(Br)cc1)c1c(-c3ccccc3)nn(-c3ccccc3)c1N2 (configuration not stated) | 2 (≈ 3.9 µM) | 2 (≈ 3.9 µM) | 2 (≈ 3.9 µM) | 58 (≈ 113 µM) | 2 (≈ 3.9 µM) | < 2 | < 2 | 30 (≈ 58.6 µM) | 2 (≈ 3.9 µM) |  |  |  |  |  |  |  |  | 
15 | O=c1[nH]c(=S)[nH]c2c1C(c1ccccc1)c1c(-c3ccccc3)nn(-c3ccccc3)c1N2 (configuration not stated) | 4 (≈ 8.9 µM) | 4 (≈ 8.9 µM) | 8 (≈ 17.8 µM) | 8 (≈ 17.8 µM) | 4 (≈ 8.9 µM) | < 2 | 4 (≈ 8.9 µM) | 4 (≈ 8.9 µM) | 32 (≈ 71.2 µM) |  |  |  |  |  |  |  |  | 
16 | O=c1[nH]c(=S)[nH]c2c1C(c1ccc([N+](=O)[O-])cc1)c1c(-c3ccccc3)nn(-c3ccccc3)c1N2 (configuration not stated) | 4 (≈ 8.09 µM) | 4 (≈ 8.09 µM) | 3 (≈ 6.07 µM) | 4 (≈ 8.09 µM) | 8 (≈ 16.2 µM) | 6 (≈ 12.1 µM) | 6 (≈ 12.1 µM) | 14 (≈ 28.3 µM) | 12 (≈ 24.3 µM) |  |  |  |  |  |  |  |  | 
17 | O=c1[nH]c2c(c(=O)[nH]1)C(c1ccc(Cl)cc1)c1c(-c3ccccc3)nn(-c3ccc([N+](=O)[O-])cc3)c1N2 (configuration not stated) | 8 (≈ 15.6 µM) | 6 (≈ 11.7 µM) | 4 (≈ 7.8 µM) | 4 (≈ 7.8 µM) | 28 (≈ 54.6 µM) | < 2 | 6 (≈ 11.7 µM) | 2 (≈ 3.9 µM) | 28 (≈ 54.6 µM) |  |  |  |  |  |  |  |  | 
18 | O=c1[nH]c(=S)[nH]c2c1C(c1ccccc1)c1c(-c3ccccc3)nn(-c3ccc([N+](=O)[O-])cc3)c1N2 (configuration not stated) | 3 (≈ 6.07 µM) | 4 (≈ 8.09 µM) | 4 (≈ 8.09 µM) | 3 (≈ 6.07 µM) | 7 (≈ 14.2 µM) | 8 (≈ 16.2 µM) | 5 (≈ 10.1 µM) | 13 (≈ 26.3 µM) | 14 (≈ 28.3 µM) |  |  |  |  |  |  |  |  | 
